Assay results: patent US20230295201A1 (Gilead Sciences, Inc., priority 2020, published 2023)
Where two headings read alike, the source gives them in different places.

How the values were obtained:
RSV strain A2 = experiment: RSV HEp-2 EC50 (infectious cytopathic cell protection assay); format: cell-based; conditions: read-out: RSV HEp-2 EC50
Description: Antiviral activity against RSV is determined using an infectious cytopathic cell protection assay in HEp-2 cells. In this assay, compounds inhibiting viral infection and/or replication produce a cytoprotective effect against the virus-induced cell killing that can be quantified using a cell viability reagent. The techniques used here are novel adaptations of methods described in published literature (Chapman et al., Antimicrob Agents Chemother. 2007, 51(9):3346-53.)
HEp-2 cells are obtained from ATCC (Manassas, VI) and maintained in MEM media supplemented with 10% fetal bovine serum and penicillin/streptomycin. Cells are passaged twice a week and kept at subconfluent stage. Commercial stock of RSV strain A2 (Advanced Biotechnologies, Columbia, MD) is titered before compound testing to determine the appropriate dilution of the virus stock that generates desirable cytopathic effect in HEp-2 cells.
For antiviral tests, HEp-2 cells are grown in large cell culture flasks to near confluency but not fully so. The compounds to be tested are prediluted in DMSO in 384-well compound dilution plates, either in an 8 or 40 sample per plate standardized dose response format. 3-fold serial dilution increments of each test compound are prepared in the plates and test samples are transferred via acoustic transfer apparatus (Echo, Labcyte) at 100 nL per well into cell culture assay 384-well plates. Each compound dilution is transferred in single or quadruplicate samples into dry assay plates, which are stored until assay is ready to go. The positive and negative controls are laid out in opposite on ends of the plate in vertical blocks (1 column).
Subsequently, an infectious mixture is prepared using an appropriate dilution of virus stock previously determined by titration with cells at a density of 50,000/ml and 20 µL/well is added to test plates w/compounds via automation (uFlow, Biotek). Each plate includes negative and positive controls (16 replicates each) to create 0% and 100% virus inhibition standards, respectively. Following the infection with RSV, testing plates are incubated for 4 days in a 37° C. cell culture incubator. After the incubation, a cell viability reagent, Cell TiterGlo (Promega, Madison, WI) is added to the assay plates, which are incubated briefly, and a luminescent readout is measured (Envision, Perkin Elmer) in all the assay plates. The RSV-induced cytopathic effect, percentage inhibition, is determined from the levels of remaining cell viability. […] Various potent anti-RSV tool compounds are used as positive controls for antiviral activity.

RSV A2 = experiment: RSV NHBE EC50 (RSV A2 antiviral assay in normal human bronchial epithelial cells); format: cell-based; conditions: read-out: RSV NHBE EC50
Description: Normal human bronchial epithelial (NHBE) cells were purchased from Lonza (Walkersville, MD, Cat #CC-2540) and cultured in Bronchial Epithelial Growth Media (BEGM) (Lonza, Walkersville, MD, Cat #CC-3170). The cells were passaged 1-2 times per week to maintain <80% confluency. The NHBE cells were discarded after 6 passages in culture.
To conduct the RSV A2 antiviral assay, NHBE cells were plated in 96-well plates at a density of 7,500 cells per well in BEGM and allowed to attach overnight at 37° C. Following attachment, 100 μL of cell culture media was removed and 3-fold serially diluted compound was added using a Hewlett-Packard D300 Digital Dispenser. The final concentration of DMSO was normalized to 0.05%. Following compound addition, the NHBE cells were infected by the addition of 100 μL of RSV A2 at a titer of 1×10^4.5 tissue culture infectious doses/mL in BEGM and then incubated at 37° C. for 4 days. […] The mixtures were incubated for 10 minutes at 25° C., and the luminescence signal was quantified on an Envision luminescence plate reader.

[1] = human respiratory syncytial virus, HEp-2, 96 h, HEp-2 cells, RSV A2, 4 days
[2] = human respiratory syncytial virus, NHBE, 96 h, NHBE cells, RSV A2, 4 days
[3] = human respiratory syncytial virus, NHBE, 96 h
[4] = human respiratory syncytial virus, 96 h, HEp-2 cells, RSV A2, 4 days
[5] = human respiratory syncytial virus, 96 h, NHBE cells, RSV A2, 4 days

Structure (SMILES) | EC50 (RSV strain A2; [1]) [nM] | EC50 (RSV strain A2; HEp-2 cells, RSV A2, 4 days) [nM] | EC50 (RSV A2; NHBE cells, RSV A2, 4 days) [nM] | other results
CC[C@H](NP(=O)(OC[C@@]1(C#N)O[C@@H](c2ccc3c(N)ncnn23)[C@H](O)[C@@H]1O)Oc1ccccc1)C(=O)OCC(C)(C)C (stereo partly drawn) [Example 157, neopentyl (2S)-2-(((((2R,3S,4R,5S)-5-(4-aminopyrrolo[2,1-f][1,2,4]triazin-7-yl)-2-cyano-3,4-dihydroxytetrahydrofuran-2-yl)methoxy)(phenoxy)phosphoryl)amino)butanoate] | 972 |  |  | EC50 (RSV A2; [2]): 163 nM
C[C@H](NP(=O)(OC[C@@]1(C#N)O[C@@H](c2ccc3c(N)ncnn23)[C@H](O)[C@@H]1O)Oc1ccccc1)C(=O)O[C@H]1CC[C@@H](C(F)(F)F)CC1 (single isomer, unassigned) [Example 179] |  | 591 | > 4800 | 
C[C@H](N[P@@](=O)(OC[C@@]1(C#N)O[C@@H](c2ccc3c(N)ncnn23)[C@H](O)[C@@H]1O)Oc1ccccc1)C(=O)O[C@H]1CC[C@H](C(C)(C)C)CC1 (single isomer, unassigned) [Example 23] | 207 |  |  | EC50 (RSV A2; [2]): 34 nM
CCC(CC)COC(=O)[C@@H](C)NP(=O)(OC[C@@]1(C#N)O[C@@H](c2ccc3c(N)ncnn23)[C@H](O)[C@@H]1O)Oc1ccccc1 (single isomer, unassigned) [Example 83] |  | 5300 | 953 | 
COC(=O)[C@H](C)NP(=O)(OC[C@@]1(C#N)O[C@@H](c2ccc3c(N)ncnn23)[C@H](O)[C@@H]1O)Oc1ccc(C[C@H](N)C(=O)OC)cc1 (single isomer, unassigned) [Example 63] |  | 4070 | > 5000 | 
CCC(CC)COC(=O)[C@H](CC(C)C)NP(=O)(OC[C@@]1(C#N)O[C@@H](c2ccc3c(N)ncnn23)[C@H](O)[C@@H]1O)Oc1ccccc1 (single isomer, unassigned) [Example 128] |  | 1870 | 164 | 
CCC(CC)COC(=O)[C@H](CC(C)C)NP(=O)(OC[C@@]1(C#N)O[C@@H](c2ccc3c(N)ncnn23)[C@H](O)[C@@H]1O)Oc1ccccc1 (mixture of isomers) [Example 127, (2S)-2-ethylbutyl 2-(((((2R,3S,4R,5S)-5-(4-aminopyrrolo[2,1-f][1,2,4]triazin-7-yl)-2-cyano-3,4-dihydroxytetrahydrofuran-2-yl)methoxy)(phenoxy)phosphoryl)amino)-4-methylpentanoate] | 1730 |  |  | EC50 (RSV A2; [2]): 434 nM
C[C@H](NP(=O)(OC[C@@]1(C#N)O[C@@H](c2ccc3c(N)ncnn23)[C@H](O)[C@@H]1O)Oc1ccccc1)C(=O)NC1CCCCC1 (stereo partly drawn) [Example 138, ((2R,3S,4R,5S)-5-(4-aminopyrrolo[2,1-f][1,2,4]triazin-7-yl)-2-cyano-3,4-dihydroxytetrahydrofuran-2-yl)methyl phenyl ((S)-1-(cyclohexylamino)-1-oxopropan-2-yl)phosphoramidate] | 38500 |  |  | EC50 (RSV A2; [2]): > 5000 nM
CCOC(=O)c1ccccc1OP1(=O)OC[C@@]2(C#N)O[C@@H](c3ccc4c(N)ncnn34)[C@H](O)[C@@H]2O1 (stereo partly drawn) [Example 224, ethyl 2-(((4aR,6S,7S,7aS)-6-(4-aminopyrrolo[2,1-f][1,2,4]triazin-7-yl)-4a-cyano-7-hydroxy-2-oxidotetrahydro-4H-furo[3,2-d][1,3,2]dioxaphosphinin-2-yl)oxy)benzoate] |  |  |  | EC50 (RSV A2; [3]): 2830 nM
CC[C@H](NP(=O)(OC[C@@]1(C#N)O[C@@H](c2ccc3c(N)ncnn23)[C@H](O)[C@@H]1O)Oc1ccccc1)C(=O)OC1CCCC1 (single isomer, unassigned) [Example 110] |  | 281 | 339 | 
C[C@H](NP(=O)(OC[C@@]1(C#N)O[C@@H](c2ccc3c(N)ncnn23)[C@H](O)[C@@H]1O)Oc1ccccc1)C(=O)OCC(C)(C)C(F)(F)F (single isomer, unassigned) [Example 261] | 34 |  |  | 
CC(C)(C)C(=O)OCCNP(=O)(OCC1(C#N)OC(c2ccc3c(N)ncnn23)C(O)C1O)Oc1ccccc1 (single isomer, unassigned) [Example 13] |  | 93 | 30 | 
C[C@H](NP(=O)(OC[C@@]1(C#N)O[C@@H](c2ccc3c(N)ncnn23)[C@H](O)[C@@H]1O)Oc1ccccc1)C(=O)O[C@H]1CCOC1 (mixture of isomers) [Example 64, (S)-Tetrahydrofuran-3-yl ((((2R,3S,4R,5S)-5-(4-aminopyrrolo[2,1-f][1,2,4]triazin-7-yl)-2-cyano-3,4-dihydroxytetrahydrofuran-2-yl)methoxy)(phenoxy)phosphoryl)-L-alaninate] | 350 |  |  | EC50 (RSV A2; [2]): 3500 nM
CCOCCOCCOC(=O)[C@H](C)NP(=O)(OC[C@@]1(C#N)O[C@@H](c2ccc3c(N)ncnn23)[C@H](O)[C@@H]1O)Oc1ccccc1 (single isomer, unassigned) [Example 75] | 1260 |  |  | 
COCCCOC(=O)[C@H](C)NP(=O)(OC[C@@]1(C#N)O[C@@H](c2ccc3c(N)ncnn23)[C@H](O)[C@@H]1O)Oc1ccccc1 (mixture of isomers) [Example 58, 3-Methoxypropyl ((((2R,3S,4R,5S)-5-(4-aminopyrrolo[2,1-f][1,2,4]triazin-7-yl)-2-cyano-3,4-dihydroxytetrahydrofuran-2-yl)methoxy)(phenoxy)phosphoryl)-L-alaninate] |  |  |  | EC50 (RSV A2; [2]): 917 nM
CCC(CC)COC(=O)CNP(=O)(NCC(=O)OCC(CC)CC)OC[C@@]1(C#N)O[C@@H](c2ccc3c(N)ncnn23)[C@H](O)[C@@H]1O [Example 226, 2-Ethylbutyl ((((2R,3S,4R,5S)-5-(4-aminopyrrolo[2,1-f][1,2,4]triazin-7-yl)-2-cyano-3,4-dihydroxytetrahydrofuran-2-yl)methoxy)((2-(2-ethylbutoxy)-2-oxoethyl)amino)phosphoryl)glycinate] |  |  |  | EC50 (RSV strain A2; [4]): 1910 nM; EC50 (RSV A2; [5]): 2550 nM
C[C@H](N[P@@](=O)(OC[C@@]1(C#N)O[C@@H](c2ccc3c(N)ncnn23)[C@H](O)[C@@H]1O)Oc1ccccc1)C(=O)OCC(C)(C)C [Example 93] |  | 2840 | 85 | 
CCOC(=O)[C@H](C)NP(=O)(OC[C@@]1(C#N)O[C@@H](c2ccc3c(N)ncnn23)[C@H](O)[C@@H]1O)Oc1ccc(C(C)(C)C)cc1 (single isomer, unassigned) [Example 264] |  | 41 |  | 
COC(=O)[C@H](C)NP(=S)(OC[C@@]1(C#N)O[C@@H](c2ccc3c(N)ncnn23)[C@H](O)[C@@H]1O)Oc1ccccc1 (stereo partly drawn) [Example 71, methyl ((((2R,3S,4R,5S)-5-(4-aminopyrrolo[2,1-f][1,2,4]triazin-7-yl)-2-cyano-3,4-dihydroxytetrahydrofuran-2-yl)methoxy)(phenoxy)phosphorothioyl)-L-alaninate] |  |  |  | EC50 (RSV strain A2; human respiratory syncytial virus, HEp-2, 96 h): 3140 nM; EC50 (RSV A2; [3]): > 5000 nM
C[C@H](NP(=O)(O)OC[C@@]1(C#N)O[C@@H](c2ccc3c(N)ncnn23)[C@H](O)[C@@H]1O)C(=O)OC1CCCCC1 [Example 202, cyclohexyl ((((2R,3S,4R,5S)-5-(4-aminopyrrolo[2,1-f][1,2,4]triazin-7-yl)-2-cyano-3,4-dihydroxytetrahydrofuran-2-yl)methoxy)(hydroxy)phosphoryl)-L-alaninate] |  |  |  | EC50 (RSV strain A2; [4]): 7050 nM; EC50 (RSV A2; [5]): > 2950 nM
CCC(CC)COC(=O)[C@H](C)NP1(=O)OC[C@@]2(C#N)O[C@@H](c3ccc4c(N)ncnn34)[C@H](O)[C@@H]2O1 (stereo partly drawn) [Example 169, 2-ethylbutyl ((4aR,6S,7S,7aS)-6-(4-aminopyrrolo[2,1-f][1,2,4]triazin-7-yl)-4a-cyano-7-hydroxy-2-oxidotetrahydro-4H-furo[3,2-d][1,3,2]dioxaphosphinin-2-yl)-L-alaninate] |  |  |  | EC50 (RSV strain A2; [4]): 524 nM; EC50 (RSV A2; [5]): 965 nM
